This note sets out measurements from PubChem BioAssay (NCI).

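Compound exposure: 48 hours, 5 concentrations, 96-well plates. The concentration for full growth arrest is given as TGI.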

Test systems include 786-0 renal; CAKI-1 renal; EKVX NSCLC; HCT-15 colon; K-562 leukemia; LOX IMVI melanoma; MCF7 breast; MOLT-4 leukemia; NCI-H226 lung; NCI-H23 lung; OVCAR-5 ovarian; RPMI-8226 leukemia; RXF 393 renal; SF-295 CNS; U251 CNS; UACC-257 melanoma; NCI-H522 lung; UACC-62 melanoma.
What all share (test): NCI anticancer screen, dose series, 48 h

For the compound `CCOc1cc(NC(C)=O)ccc1C(=O)NN1C(=O)C(Oc2ccccc2)C1c1ccc(O)c(OC)c1` (stereo unspecified), the TGI in the experiment on 786-0 renal, in the experiment on CAKI-1 renal, in the experiment on EKVX NSCLC, in the experiment with HCT-15 colon, with K-562 leukemia and in the experiment on LOX IMVI melanoma was more than 100 µM throughout. Moreover, the TGI was more than 100 µM with MCF7 breast; 32.3 µM in the experiment on MOLT-4 leukemia; more than 100 µM with NCI-H226 lung; more than 100 µM in the experiment with NCI-H23 lung; more than 100 µM in the experiment on OVCAR-5 ovarian; 51.6 µM with RPMI-8226 leukemia. Besides, the TGI in the experiment on RXF 393 renal, in the experiment on SF-295 CNS, in the experiment with U251 CNS and in the experiment with UACC-257 melanoma was more than 100 µM in each case.

As to `Nc1ccc(C(=O)Nn2c(-c3ccccc3)nc3ccccc3c2=O)cc1`, the TGI in the experiment with 786-0 renal, in the experiment with EKVX NSCLC, in the experiment on K-562 leukemia, with LOX IMVI melanoma, with MCF7 breast and in the experiment on MOLT-4 leukemia was more than 100 µM throughout. The TGI in the experiment with NCI-H226 lung, in the experiment on NCI-H23 lung, with NCI-H522 lung, with OVCAR-5 ovarian, with RPMI-8226 leukemia and with RXF 393 renal was more than 100 µM in each case. Moreover, the TGI with SF-295 CNS, in the experiment on U251 CNS, in the experiment with UACC-257 melanoma and with UACC-62 melanoma was more than 100 µM throughout.

Consider `COC(=O)c1ccc2c(c1)CC1(C2)Cc2cc3c(cc2C1=O)CCC3` (stereo unspecified), for which the TGI in the experiment with 786-0 renal was more than 100 µM; in the experiment with CAKI-1 renal, 96.5 µM; with EKVX NSCLC, more than 100 µM; with HCT-15 colon, more than 100 µM; in the experiment with K-562 leukemia it was more than 100 µM; with LOX IMVI melanoma, 94.2 µM. For the same compound, the TGI was 50.9 µM with MCF7 breast; 29.2 µM in the experiment on MOLT-4 leukemia; more than 100 µM with NCI-H23 lung; more than 100 µM in the experiment with NCI-H522 lung; more than 100 µM with OVCAR-5 ovarian; 38.7 µM with RPMI-8226 leukemia. Moreover, the TGI is more than 100 µM in the experiment with RXF 393 renal, more than 100 µM with SF-295 CNS, more than 100 µM in the experiment with U251 CNS and 46.7 µM in the experiment on UACC-257 melanoma.

On to `CC(=O)OCC1OC(N2C(c3ccccc3)=CC(c3ccccc3)C(C#N)=C2S)C(OC(C)=O)C(OC(C)=O)C1OC(C)=O` (stereo unspecified), for which the TGI is 9.85 µM in the experiment on 786-0 renal; 7.73 µM in the experiment on CAKI-1 renal; more than 100 µM in the experiment on HCT-15 colon; more than 100 µM in the experiment with K-562 leukemia; more than 42.5 µM in the experiment with LOX IMVI melanoma; more than 65.4 µM in the experiment with MCF7 breast. In addition, the TGI is more than 100 µM in the experiment with MOLT-4 leukemia; more than 100 µM in the experiment with NCI-H226 lung; 40.5 µM in the experiment with NCI-H23 lung; 28.6 µM with NCI-H522 lung; more than 100 µM with OVCAR-5 ovarian; more than 100 µM in the experiment with RPMI-8226 leukemia. Also, the TGI in the experiment on RXF 393 renal was found to be 12.9 µM; in the experiment with SF-295 CNS, 10.1 µM; in the experiment with U251 CNS, 16.2 µM; with UACC-257 melanoma, 16.5 µM; in the experiment on UACC-62 melanoma, 7.67 µM.

Regarding `O=C(CC(=O)N(C(=O)c1ccccc1)c1ccc(Cl)cc1)N/N=C\c1cc(N=Nc2ccccc2Cl)ccc1O`, the TGI in the experiment with 786-0 renal was more than 100 µM; in the experiment with CAKI-1 renal it was more than 100 µM; with EKVX NSCLC it was more than 100 µM; in the experiment on HCT-15 colon, more than 100 µM; in the experiment with K-562 leukemia, 36 µM; in the experiment on LOX IMVI melanoma, more than 100 µM. The TGI is more than 100 µM in the experiment on MCF7 breast; 37.8 µM in the experiment on MOLT-4 leukemia; more than 100 µM in the experiment on NCI-H226 lung; more than 100 µM with NCI-H23 lung; more than 100 µM in the experiment with OVCAR-5 ovarian; more than 100 µM with RPMI-8226 leukemia. Moreover, the TGI in the experiment with RXF 393 renal, in the experiment with SF-295 CNS, in the experiment on U251 CNS and with UACC-62 melanoma was more than 100 µM in each case.

Turning to `Cc1ccccc1Nc1cn(COCc2ccccc2)c(=O)[nH]c1=O`, the TGI in the experiment with 786-0 renal, with CAKI-1 renal, in the experiment on EKVX NSCLC, with HCT-15 colon, in the experiment with K-562 leukemia and in the experiment on LOX IMVI melanoma was more than 100 µM in each case. The TGI in the experiment with MCF7 breast, in the experiment with MOLT-4 leukemia, in the experiment on NCI-H23 lung, in the experiment with NCI-H522 lung, in the experiment with OVCAR-5 ovarian and in the experiment with RPMI-8226 leukemia was more than 100 µM throughout. Further, the TGI with RXF 393 renal, with SF-295 CNS, with U251 CNS, in the experiment on UACC-257 melanoma and with UACC-62 melanoma was more than 100 µM each time.

`CC[C@@H]1/C=C/C=C/C[C@H](C)[C@@H](O)[C@](C)(O)C(=O)[C@H](C)[C@@H](O)[C@H](C)C(=O)[C@H](C)[C@@H](O)[C@H](C)/C=C/C(=O)O[C@H]2[C@@H](C)[C@@H](CC1)O[C@]1(O[C@H](CC(C)O)[C@H](C)CC1=O)[C@@H]2C` (stereo partly specified): the TGI with 786-0 renal is 12.1 µM; with CAKI-1 renal, 18 µM; in the experiment with EKVX NSCLC it was 5.9 µM; in the experiment with HCT-15 colon it was more than 21.2 µM; with K-562 leukemia, 14.5 µM; in the experiment with LOX IMVI melanoma, 9.2 µM. Further, the TGI in the experiment on MCF7 breast is 4.7 µM; in the experiment with MOLT-4 leukemia it was 11.3 µM; in the experiment with NCI-H23 lung, 12.4 µM; in the experiment on NCI-H522 lung, 6.59 µM; with OVCAR-5 ovarian it was 8.25 µM; with RPMI-8226 leukemia it was more than 13.9 µM. Besides, the TGI in the experiment with RXF 393 renal came to 7.37 µM; in the experiment with SF-295 CNS, 0.114 µM; with U251 CNS it was 11.9 µM; in the experiment with UACC-257 melanoma, 3.54 µM; in the experiment with UACC-62 melanoma it was 6.68 µM.

In the case of `Oc1cc(O)c2c(c1)O[C@H](c1cc(O)c(O)c(O)c1)[C@H](O)C2`, the TGI is 33.5 µM in the experiment with 786-0 renal; more than 100 µM in the experiment with CAKI-1 renal; more than 100 µM in the experiment with HCT-15 colon; 48.4 µM in the experiment on K-562 leukemia; 77.6 µM in the experiment on LOX IMVI melanoma; 40.1 µM in the experiment on MCF7 breast. Besides, the TGI in the experiment on MOLT-4 leukemia is 32.9 µM; in the experiment with NCI-H226 lung, more than 100 µM; in the experiment on NCI-H23 lung, 65.3 µM; in the experiment with NCI-H522 lung, 38.1 µM; in the experiment with OVCAR-5 ovarian it was 32 µM; in the experiment with RPMI-8226 leukemia it was 31.7 µM. The TGI with RXF 393 renal was 29.6 µM; in the experiment on SF-295 CNS, 83.7 µM; with U251 CNS, 30.4 µM; with UACC-257 melanoma it was more than 100 µM.
